{"source": "PubChem BioAssay (NCI)", "assay_in_all_cases": "growth of human tumour cells (NCI), 48 h", "key": {"786-0 renal": {"system": "786-0 renal"}, "A498 renal": {"system": "A498 renal"}, "A549 NSCLC": {"system": "A549 NSCLC"}, "ACHN renal": {"system": "ACHN renal"}, "CAKI-1 renal": {"system": "CAKI-1 renal"}, "CCRF-CEM leukemia": {"system": "CCRF-CEM leukemia"}, "COLO 205 colon": {"system": "COLO 205 colon"}, "DLD-1 colon": {"system": "DLD-1 colon"}, "DMS 114 small cell lung": {"system": "DMS 114 small cell lung"}, "DMS 273 small cell lung": {"system": "DMS 273 small cell lung"}, "DU-145 prostate": {"system": "DU-145 prostate"}, "EKVX NSCLC": {"system": "EKVX NSCLC"}, "HCC-2998 colon": {"system": "HCC-2998 colon"}, "HCT-116 colon": {"system": "HCT-116 colon"}, "HCT-15 colon": {"system": "HCT-15 colon"}, "HL-60(TB) leukemia": {"system": "HL-60(TB) leukemia"}, "HOP-18 NSCLC": {"system": "HOP-18 NSCLC"}, "HOP-62 NSCLC": {"system": "HOP-62 NSCLC"}, "HOP-92 NSCLC": {"system": "HOP-92 NSCLC"}, "HT29 colon": {"system": "HT29 colon"}, "IGROV1 ovarian": {"system": "IGROV1 ovarian"}, "K-562 leukemia": {"system": "K-562 leukemia"}, "KM12 colon": {"system": "KM12 colon"}, "KM20L2 colon": {"system": "KM20L2 colon"}, "LOX IMVI melanoma": {"system": "LOX IMVI melanoma"}, "M14 melanoma": {"system": "M14 melanoma"}, "M19-MEL melanoma": {"system": "M19-MEL melanoma"}, "MALME-3M melanoma": {"system": "MALME-3M melanoma"}, "MCF7 breast": {"system": "MCF7 breast"}, "MDA-MB-231 breast": {"system": "MDA-MB-231 breast"}, "MDA-MB-435": {"system": "MDA-MB-435"}, "MDA-N": {"system": "MDA-N"}, "MOLT-4 leukemia": {"system": "MOLT-4 leukemia"}, "NCI-H226 lung": {"system": "NCI-H226 lung"}, "NCI-H23 lung": {"system": "NCI-H23 lung"}, "NCI-H460 lung": {"system": "NCI-H460 lung"}, "OVCAR-3 ovarian": {"system": "OVCAR-3 ovarian"}, "OVCAR-4 ovarian": {"system": "OVCAR-4 ovarian"}, "PC-3 prostate": {"system": "PC-3 prostate"}, "RPMI-8226 leukemia": {"system": "RPMI-8226 leukemia"}, "SF-295 CNS": {"system": "SF-295 CNS"}, "SF-539 CNS": {"system": "SF-539 CNS"}, "SK-MEL-2 melanoma": {"system": "SK-MEL-2 melanoma"}, "SK-MEL-28 melanoma": {"system": "SK-MEL-28 melanoma"}, "SK-MEL-5 melanoma": {"system": "SK-MEL-5 melanoma"}, "SK-OV-3 ovarian": {"system": "SK-OV-3 ovarian"}, "SN12C renal": {"system": "SN12C renal"}, "SNB-19 CNS": {"system": "SNB-19 CNS"}, "SNB-78 CNS": {"system": "SNB-78 CNS"}, "SW-620 colon": {"system": "SW-620 colon"}, "U251 CNS": {"system": "U251 CNS"}, "UACC-257 melanoma": {"system": "UACC-257 melanoma"}, "UACC-62 melanoma": {"system": "UACC-62 melanoma"}, "UO-31 renal": {"system": "UO-31 renal"}}, "note": "Several values for one entry are separate records, joined by “and”; a condition that tells them apart may be missing. Equal values may be shown once.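 Briefly, cells in 96-well plates were exposed to five compound concentrations for 48 h, and endpoints were estimated by linear interpolation. The concentration for 50% growth inhibition is given as GI50. Definition used: TGI = concentration required for complete inhibition of growth.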"}
{"smiles": "COc1cc(C2C3=C(COC3=O)Oc3cc4c(cc32)OCO4)cc(OC)c1OC", "note": "(stereo not given)", "values": [{"measurement": "GI50", "setting": "786-0 renal", "result": 45.6, "unit": "nM"}, {"measurement": "GI50", "setting": "A498 renal", "result": 36.3, "unit": "nM"}, {"measurement": "TGI", "setting": "A498 renal", "result": 18.6, "unit": "nM"}, {"measurement": "GI50", "setting": "A549 NSCLC", "result": "< 20.4", "unit": "nM"}, {"measurement": "TGI", "setting": "A549 NSCLC", "result": 14200, "unit": "nM"}, {"measurement": "GI50", "setting": "ACHN renal", "result": "< 15", "unit": "nM"}, {"measurement": "TGI", "setting": "ACHN renal", "result": 16400, "unit": "nM"}, {"measurement": "TGI", "setting": "CAKI-1 renal", "result": 134, "unit": "nM"}, {"measurement": "GI50", "setting": "CCRF-CEM leukemia", "result": 22.1, "unit": "nM"}, {"measurement": "TGI", "setting": "CCRF-CEM leukemia", "result": "338 nM and 62.5 nM"}, {"measurement": "GI50", "setting": "COLO 205 colon", "result": "< 13.8", "unit": "nM"}, {"measurement": "TGI", "setting": "COLO 205 colon", "result": "92.9 nM and 38.5 nM"}, {"measurement": "TGI", "setting": "DLD-1 colon", "result": "> 100000", "unit": "nM"}, {"measurement": "TGI", "setting": "DMS 114 small cell lung", "result": "38.4 nM and 13.1 nM"}, {"measurement": "TGI", "setting": "DMS 273 small cell lung", "result": 12700, "unit": "nM"}, {"measurement": "GI50", "setting": "DU-145 prostate", "result": 22, "unit": "nM"}, {"measurement": "TGI", "setting": "DU-145 prostate", "result": "87.5 nM and 67.1 nM"}, {"measurement": "GI50", "setting": "EKVX NSCLC", "result": 660, "unit": "nM"}, {"measurement": "GI50", "setting": "HCC-2998 colon", "result": 21.4, "unit": "nM"}, {"measurement": "TGI", "setting": "HCC-2998 colon", "result": 62, "unit": "nM"}, {"measurement": "TGI", "setting": "HCT-116 colon", "result": "235 nM and 1890 nM"}, {"measurement": "GI50", "setting": "HCT-15 colon", "result": 35.4, "unit": "nM"}, {"measurement": "TGI", "setting": "HL-60(TB) leukemia", "result": "50.2 nM and 41.3 nM"}, {"measurement": "GI50", "setting": "HOP-18 NSCLC", "result": "> 100000", "unit": "nM"}, {"measurement": "TGI", "setting": "HOP-18 NSCLC", "result": "> 100000", "unit": "nM"}, {"measurement": "GI50", "setting": "HOP-62 NSCLC", "result": 20, "unit": "nM"}, {"measurement": "TGI", "setting": "HOP-62 NSCLC", "result": 2140, "unit": "nM"}, {"measurement": "GI50", "setting": "HOP-92 NSCLC", "result": "< 11.7", "unit": "nM"}, {"measurement": "TGI", "setting": "HOP-92 NSCLC", "result": "88.2 nM and 90.1 nM"}, {"measurement": "GI50", "setting": "HT29 colon", "result": "10.5 nM and 26 nM"}, {"measurement": "TGI", "setting": "HT29 colon", "result": 44.4, "unit": "nM"}, {"measurement": "GI50", "setting": "IGROV1 ovarian", "result": 18.1, "unit": "nM"}, {"measurement": "TGI", "setting": "IGROV1 ovarian", "result": 13300, "unit": "nM"}, {"measurement": "GI50", "setting": "K-562 leukemia", "result": 32, "unit": "nM"}, {"measurement": "TGI", "setting": "K-562 leukemia", "result": 131, "unit": "nM"}, {"measurement": "GI50", "setting": "KM12 colon", "result": 10.1, "unit": "nM"}, {"measurement": "TGI", "setting": "KM12 colon", "result": 144, "unit": "nM"}, {"measurement": "TGI", "setting": "KM20L2 colon", "result": "42.1 nM and 28.3 nM"}, {"measurement": "GI50", "setting": "LOX IMVI melanoma", "result": 9.94, "unit": "nM"}, {"measurement": "TGI", "setting": "LOX IMVI melanoma", "result": "> 31600", "unit": "nM"}, {"measurement": "GI50", "setting": "M14 melanoma", "result": "< 18.1", "unit": "nM"}, {"measurement": "TGI", "setting": "M14 melanoma", "result": "> 31600", "unit": "nM"}, {"measurement": "TGI", "setting": "M19-MEL melanoma", "result": "> 100000", "unit": "nM"}, {"measurement": "GI50", "setting": "MALME-3M melanoma", "result": 36, "unit": "nM"}, {"measurement": "GI50", "setting": "MCF7 breast", "result": 20.4, "unit": "nM"}, {"measurement": "TGI", "setting": "MDA-MB-231 breast", "result": 694, "unit": "nM"}, {"measurement": "GI50", "setting": "MDA-MB-435", "result": 48.5, "unit": "nM"}, {"measurement": "TGI", "setting": "MDA-MB-435", "result": "80.4 nM and 291 nM"}, {"measurement": "TGI", "setting": "MDA-N", "result": 53.2, "unit": "nM"}, {"measurement": "TGI", "setting": "MOLT-4 leukemia", "result": 15100, "unit": "nM"}, {"measurement": "TGI", "setting": "NCI-H226 lung", "result": 230, "unit": "nM"}, {"measurement": "GI50", "setting": "NCI-H23 lung", "result": 28, "unit": "nM"}, {"measurement": "GI50", "setting": "NCI-H460 lung", "result": "< 18.5", "unit": "nM"}, {"measurement": "TGI", "setting": "OVCAR-3 ovarian", "result": "70.9 nM and 88.3 nM"}, {"measurement": "TGI", "setting": "OVCAR-4 ovarian", "result": 28500, "unit": "nM"}, {"measurement": "GI50", "setting": "PC-3 prostate", "result": 20.3, "unit": "nM"}, {"measurement": "TGI", "setting": "PC-3 prostate", "result": 313, "unit": "nM"}, {"measurement": "GI50", "setting": "RPMI-8226 leukemia", "result": "< 17.6", "unit": "nM"}, {"measurement": "TGI", "setting": "RPMI-8226 leukemia", "result": "> 31600", "unit": "nM"}, {"measurement": "TGI", "setting": "SF-295 CNS", "result": 57.5, "unit": "nM"}, {"measurement": "GI50", "setting": "SF-539 CNS", "result": 14.9, "unit": "nM"}, {"measurement": "TGI", "setting": "SF-539 CNS", "result": "49.7 nM and 42.7 nM"}, {"measurement": "GI50", "setting": "SK-MEL-2 melanoma", "result": 262, "unit": "nM"}, {"measurement": "GI50", "setting": "SK-MEL-28 melanoma", "result": 11100, "unit": "nM"}, {"measurement": "TGI", "setting": "SK-MEL-28 melanoma", "result": "> 31600", "unit": "nM"}, {"measurement": "GI50", "setting": "SK-MEL-5 melanoma", "result": "< 16.2", "unit": "nM"}, {"measurement": "TGI", "setting": "SK-MEL-5 melanoma", "result": "189 nM and 681 nM"}, {"measurement": "GI50", "setting": "SK-OV-3 ovarian", "result": 32, "unit": "nM"}, {"measurement": "TGI", "setting": "SK-OV-3 ovarian", "result": 13200, "unit": "nM"}, {"measurement": "GI50", "setting": "SN12C renal", "result": 37, "unit": "nM"}, {"measurement": "TGI", "setting": "SN12C renal", "result": 20900, "unit": "nM"}, {"measurement": "GI50", "setting": "SNB-19 CNS", "result": 47.4, "unit": "nM"}, {"measurement": "TGI", "setting": "SNB-19 CNS", "result": 17400, "unit": "nM"}, {"measurement": "TGI", "setting": "SNB-78 CNS", "result": 50600, "unit": "nM"}, {"measurement": "TGI", "setting": "SW-620 colon", "result": "> 31600", "unit": "nM"}, {"measurement": "GI50", "setting": "U251 CNS", "result": "< 21.3", "unit": "nM"}, {"measurement": "TGI", "setting": "UACC-257 melanoma", "result": 2860, "unit": "nM"}, {"measurement": "TGI", "setting": "UACC-62 melanoma", "result": "> 31600", "unit": "nM"}, {"measurement": "GI50", "setting": "UO-31 renal", "result": "< 31.5", "unit": "nM"}, {"measurement": "TGI", "setting": "UO-31 renal", "result": 16100, "unit": "nM"}]}
